Measured values published in ChEMBL document CHEMBL1139723, “Novel imidazole-based combretastatin A-4 analogues: evaluation of their in vitro antitumor activity and molecular modeling study of their binding to the colchicine site of tubulin” (Bioorg Med Chem Lett, 2006).

What was measured:
[1] = Cytotoxicity against NCI60 cell line; format: cell-based; conditions: human
[2] = Cytotoxicity against MDR HCT15 cells; format: cell-based; conditions: human, MDR HCT-15 cells
[3] = Cytotoxicity against NCI-H460 cells; format: cell-based; conditions: human
[4] = tested on: HCC 2998; experiment: Tumor growth inhibition against HCC2998 cells; format: functional; conditions: Homo sapiens, read-out: Log TGI (converted)
[5] = tested on: HL-60; experiment: Tumor growth inhibition against HL60 cells; format: functional; conditions: Homo sapiens, read-out: Log TGI (converted)
[6] = Tumor growth inhibition of […] cells xenografted in immunodeficient mouse at 150 mg/kg/day after 25 days; format: functional; conditions: Homo sapiens, 600 h

SMILES	Log TGI [1]	pGI50 [1]	GI50 [2] [nM]	GI50 [3] [nM]	TGI [4] [nM]	TGI [5] [nM]	inhibition in vivo at 150 mg/kg/day [6] [%]
COc1ccc(-c2nccn2-c2cc(OC)c(OC)c(OC)c2)cc1	-4.16	5.34	1150	1580	–	–	–
COc1ccc(-c2cncn2-c2ccc(OC)cc2)cc1	-4.32	4.8	19500	15500	–	–	–
COc1cc(-n2cncc2-c2ccc3ccccc3c2)cc(OC)c1OC	-4.4	7.14	17	18	29.5	–	–
COc1cc(-c2nccn2-c2ccc3ccccc3c2)cc(OC)c1OC	-4.8	6.86	22	21	–	–	–
COc1cc(-n2ccnc2-c2ccc3ccccc3c2)cc(OC)c1OC	-4.68	6.82	51	37	–	–	–
COc1ccc(-n2ccnc2-c2cc(OC)c(OC)c(OC)c2)cc1	-4.32	5.45	1150	2340	–	–	–
COc1ccc(-c2cncn2-c2cc(OC)c(OC)c(OC)c2)cc1F	-4.51	7.4	< 10	< 10	–	< 28.8	–
COc1ccc(-c2cncn2-c2cc(OC)c(OC)c(OC)c2)cc1	-4.71	6.59	170	363	–	–	52
COc1ccc(-c2nccn2-c2ccc(OC)cc2)cc1	-4.19	4.76	22900	17800	–	–	–
COc1ccc(/C=C\c2cc(OC)c(OC)c(OC)c2)cc1O [COMBRETASTATIN A4]	-5.03	7	< 10	< 10	–	–	–
